Reference: patent publication US20130046283A1, “METHODS AND INTRAVASCULAR TREATMENT DEVICES FOR TREATMENT OF ATHEROSCLEROSIS” (Medtronic Vascular, Inc., priority 2011, published 2013)
“Also recorded” adds a separate entry of the source.

Columns and labels:
Format in all cases: cell-based
SFA smooth muscle cells = experiment: Actin and Ki67 staining of SMCs exposed to drug (cellular morphology); details: SMCs fixed and stained with Actin and Ki67; FIG. 13B
Description: (§1) FIG. 13 depicts effects of paclitaxel on cellular morphology, gene and protein expression. (A and B) SFA smooth muscle cells from normal donor tissue were treated with Paclitaxel, Everolimus or Sirolimus. Gene expression levels were determined by qRT-PCR for each drug arm calibrated against unstimulated control for (A) CDKN1A and (C) CTGF. (B) SMCs were exposed to Sirolimus or Paclitaxel, fixed and stained with Actin (red) and Ki67 (green). (D) SFA derived smooth muscle cells were treated with Paclitaxel, Everolimus or Sirolimus then stimulated with Colchicinne (CTGF a) or Angiotensin II (CTGF b). Protein levels were detected by western blot using antibodies against CTGF and beta actin. One representative blot of three replicates shown.
(§2) Obtaining samples from SFA arteries allowed us to generate SFA derived-smooth muscle cells and to examine the expression of genes of interest as ide12tified in the disease atherectomy samples. In particularly we investigated the transcriptional response to anti-proliferative drugs, e.g. paclitaxel and drugs from the limus family such as sirolimus, everolimus or zotarolimus. These drugs are currently employed in combination devices indicated for the treatment of coronary and peripheral disease, including drug eluting stents and drug eluting balloons. […]

PEDF = experiment: qRT-PCR PEDF gene expression in SFA smooth muscle cells, drug then inflammatory cocktail; details: quiescent SFA smooth muscle cells, drug then FBS, TGF Beta and IL-1 beta cocktail; calibrated against unstimulated baseline; FIG. 14C
Description: (§3) FIG. 14 depicts differential effect of paclitaxel versus the Limus family of drugs on expression of cell cycle, proliferation and ECM target genes in SFA smooth muscle cells. Quiescent SFA smooth muscle cells were treated with of Paclitaxel, Zotarolimus or Sirolimus then stimulated with inflammatory cocktail consisting of FBS, TGF Beta and 11—1 beta. Relative gene expression levels were determined by qRT-PCR for each drug treated arm as calibrated against the unstimulated baseline control for (A) BTG2, (B) KLF4, (C) PEDF, (D) Endothelin-1, (E) Thrombospondin-1, and (F) Thrombospondin-3.
(§4) Since the limus drugs have been known to affect the signaling via their effect on cell cycle inhibitors (CDKN1A and CDKN1 B), we next studied their effects on the pertinent proliferative disease targets identified in this study. Specifically, we looked at BTG2, KLF4 and PEDF (FIGS. 14A, 14B, and 14C, respectively).

Thrombospondin-3 = experiment: qRT-PCR Thrombospondin-3 gene expression in SFA smooth muscle cells, drug then inflammatory cocktail; details: quiescent SFA smooth muscle cells, FIG. 14F
Description: as §3
(§5) In a similar manner, the expression of Thrombospondin-1 and Thrombospondin-3 is inhibited by paciltaxel but not by sirolimus and zotarolimus. Taken together the data with regards to the differential effects of commercially employed, anti-proliferative drugs, such as paciltaxel and drugs of the limus family, on the expression of SFA disease target genes can highlight/point to wards the most beneficial therapeutic mode of application and treatment.

CTGF [1] = experiment: Western blot of CTGF protein in drug-treated SFA derived smooth muscle cells; details: drug then Colchicinne or Angiotensin II stimulation, FIG. 13D
Description: as §1, §2

CDKN1A = experiment: qRT-PCR CDKN1A gene expression in drug-treated SFA smooth muscle cells; details: SFA smooth muscle cells from normal donor tissue; qRT-PCR calibrated against unstimulated control; FIG. 13A
Description: as §1, §2

Endothelin-1 = experiment: qRT-PCR Endothelin-1 gene expression in SFA smooth muscle cells, drug then inflammatory cocktail; details: quiescent SFA smooth muscle cells, FIG. 14D
Description: as §3, §5

CTGF [2] = experiment: qRT-PCR CTGF gene expression in drug-treated SFA smooth muscle cells; details: qRT-PCR calibrated against unstimulated control, FIG. 13C
Description: as §1, §2

KLF4 = experiment: qRT-PCR KLF4 gene expression in SFA smooth muscle cells, drug then inflammatory cocktail; details: quiescent SFA smooth muscle cells, drug then FBS, TGF Beta and IL-1 beta cocktail; calibrated against unstimulated baseline; FIG. 14B
Description: as §3, §4

BTG2 = experiment: qRT-PCR BTG2 gene expression in SFA smooth muscle cells, drug then inflammatory cocktail; details: quiescent SFA smooth muscle cells, drug then FBS, TGF Beta and IL-1 beta cocktail; calibrated against unstimulated baseline; FIG. 14A
Description: as §3, §4

Thrombospondin-1 = experiment: qRT-PCR Thrombospondin-1 gene expression in SFA smooth muscle cells, drug then inflammatory cocktail; details: quiescent SFA smooth muscle cells, FIG. 14E
Description: as §3, §5

SMILES | effect on cellular cytoskeleton / morphology (SFA smooth muscle cells) | expression of PEDF (PEDF) | expression of Thrombospondin-3 (Thrombospondin-3) | expression of Thrombospondin-3 (Thrombospondin-3; listed as paciltaxel) | CTGF protein levels (CTGF [1]) | CDKN1A expression (CDKN1A) | expression of Endothelin-1 (Endothelin-1) | expression of Endothelin-1 (Endothelin-1; listed as paciltaxel) | expression of CTGF (gene) (CTGF [2]) | expression of KLF4 (KLF4) | expression of BTG2 (BTG2) | expression of Thrombospondin-1 (Thrombospondin-1) | expression of Thrombospondin-1 (Thrombospondin-1; listed as paciltaxel)
CC(=O)O[C@H]1C(=O)[C@@]2(C)[C@H]([C@H](OC(=O)c3ccccc3)[C@]3(O)C[C@H](OC(=O)[C@H](O)[C@@H](NC(=O)c4ccccc4)c4ccccc4)C(C)=C1C3(C)C)[C@]1(OC(C)=O)CO[C@@H]1C[C@@H]2O [Paclitaxel] | disrupting cellular cytoskeleton | up regulated | substantially down regulated | inhibited | reduced | does not affect | substantially down regulated | slightly inhibited | substantial down regulation; also recorded: substantially down regulated | up regulated | up regulated | substantially down regulated | inhibited
CO[C@H]1C[C@@H]2CC[C@@H](C)[C@@](O)(O2)C(=O)C(=O)N2CCCC[C@H]2C(=O)O[C@H]([C@H](C)C[C@@H]2CC[C@H](n3cnnn3)[C@H](OC)C2)CC(=O)[C@H](C)/C=C(\C)[C@@H](O)[C@@H](OC)C(=O)[C@H](C)C[C@H](C)/C=C/C=C/C=C/1C [zotarolimus] |  |  |  |  |  |  | substantially upregulated |  |  | induced the expression | induced the expression |  | 
CO[C@H]1C[C@@H]2CC[C@@H](C)[C@@](O)(O2)C(=O)C(=O)N2CCCC[C@H]2C(=O)O[C@H]([C@H](C)C[C@@H]2CC[C@@H](OCCO)[C@H](OC)C2)CC(=O)[C@H](C)/C=C(\C)[C@@H](O)[C@@H](OC)C(=O)[C@H](C)C[C@H](C)/C=C/C=C/C=C/1C [everolimus] |  |  |  |  |  | up regulating |  |  |  |  |  |  | 
